From ChEMBL document CHEMBL4831501, “Discovery of a potent and selective inhibitor of histone lysine demethylase KDM4D” (Eur J Med Chem, 2021)

What was measured:
[1] = target: T1, Lysine-specific demethylase 4D (Homo sapiens) (UniProt Q6B0I6); assay: Inhibition of human KDM4D expressed in Escherichia coli BL21 (DE3) at 1 uM using biotinylated H3-derived peptide and 2-OG as substrate preincubated for 15 mins followed by substrate addition and measured after 1 hr by AlphaLISA assay; settings: time 75.0 min
T1 sequence (whole entry): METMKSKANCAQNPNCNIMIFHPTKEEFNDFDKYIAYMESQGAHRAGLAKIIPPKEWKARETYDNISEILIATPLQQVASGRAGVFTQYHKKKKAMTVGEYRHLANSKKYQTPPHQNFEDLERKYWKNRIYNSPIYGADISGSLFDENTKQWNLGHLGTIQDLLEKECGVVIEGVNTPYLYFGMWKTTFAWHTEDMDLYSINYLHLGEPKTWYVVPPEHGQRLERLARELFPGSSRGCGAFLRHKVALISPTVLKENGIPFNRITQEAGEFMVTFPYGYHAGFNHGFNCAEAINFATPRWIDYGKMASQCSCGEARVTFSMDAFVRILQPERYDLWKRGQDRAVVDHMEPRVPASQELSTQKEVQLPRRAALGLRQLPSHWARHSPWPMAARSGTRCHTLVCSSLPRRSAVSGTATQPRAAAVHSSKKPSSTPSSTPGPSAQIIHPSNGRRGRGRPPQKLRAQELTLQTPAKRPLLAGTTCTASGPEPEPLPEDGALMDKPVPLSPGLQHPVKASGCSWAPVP

[2] = target: T2, Lysine-specific demethylase 4D (Homo sapiens, UniProt Q6B0I6); assay: Inhibition of human KDM4D expressed in Escherichia coli BL21 (DE3) using biotinylated H3-derived peptide and 2-OG as substrate preincubated for 15 mins followed by substrate addition and measured after 1 hr by AlphaLISA assay
T2 sequence (Q6B0I6 whole entry): T1 sequence (whole entry)

SMILES	inhibition [1] [%]	IC50 [2] [nM]
CC(C)(C)OC(=O)N[C@@H]1CCN(C(c2cnccn2)c2cc3c(cc2O)OCO3)C1 (stereo partly drawn)	99	552
CC(C)(C)OC(=O)N[C@@H]1CCN(C(c2cncnc2)c2cc3c(cc2O)OCO3)C1 (stereo partly drawn)	64.4	
CC(C)(C)OC(=O)N[C@@H]1CCN(C(c2cccc(-c3ccccn3)c2)c2cc3c(cc2O)OCO3)C1 (stereo partly drawn)	91.4	285
CC(C)(C)OC(=O)N[C@@H]1CCN(C(c2cccc(-n3ccnc3)c2)c2cc3c(cc2O)OCO3)C1 (stereo partly drawn)	99.7	109
CC(C)(C)OC(=O)N[C@@H]1CCN(C(c2ccc(-c3cccnc3)cc2)c2cc3c(cc2O)OCO3)C1 (stereo partly drawn)	99.2	220
CC(C)(C)OC(=O)N[C@@H]1CCN(C(c2ccc(C#N)cc2)c2cc3c(cc2O)OCO3)C1 (stereo partly drawn)	99.4	141
CC(C)(C)OC(=O)N[C@@H]1CCN(C(c2ccc(-c3ccncc3)nc2)c2cc3c(cc2O)OCO3)C1 (stereo partly drawn)	97.1	165
O=C(NC1CC1)[C@@H]1CCN(C(c2ccncc2)c2cc3c(cc2O)OCO3)C1 (stereo partly drawn)	98.3	546
CC(C)(C)OC(=O)N[C@@H]1CCN(C(c2ccc(-n3cccc3)cc2)c2cc3c(cc2O)OCO3)C1 (stereo partly drawn)	95.6	444
CC(C)(C)OC(=O)N[C@@H]1CCN(C(c2cccc(-c3cccnc3)c2)c2cc3c(cc2O)OCO3)C1 (stereo partly drawn)	96.2	184
CC(C)(C)OC(=O)N[C@@H]1CCN(C(c2ccncc2)c2cc3c(cc2O)OC(C)(C)O3)C1 (stereo partly drawn)	76	609
COc1cc(C#N)ccc1C(c1cc2c(cc1O)OCO2)N1CC[C@@H](NC(=O)OC(C)(C)C)C1 (stereo partly drawn)	98.1	368
CN(C)[C@@H]1CCN(C(c2ccncc2)c2cc3c(cc2O)OCO3)C1 (stereo partly drawn)	95	200
O=C(N[C@@H]1CCN(C(c2ccncc2)c2cc3c(cc2O)OCO3)C1)c1ccccc1 (stereo partly drawn)	99.9	536
CCOc1ccccc1C(=O)N[C@@H]1CCN(C(c2ccncc2)c2cc3c(cc2O)OCO3)C1 (stereo partly drawn)	94.4	342
CC(C)C(=O)N[C@@H]1CCN(C(c2ccncc2)c2cc3c(cc2O)OCO3)C1 (stereo partly drawn)	96.5	220
CCOc1ccc(C(=O)N[C@@H]2CCN(C(c3ccncc3)c3cc4c(cc3O)OCO4)C2)cc1 (stereo partly drawn)	97.3	170
CC(C)(C)NC(=O)N[C@@H]1CCN(C(c2ccncc2)c2cc3c(cc2O)OCO3)C1 (stereo partly drawn)	97.2	188
COc1ccc(OC)c(C(c2ccncc2)N2CC[C@@H](NC(=O)OC(C)(C)C)C2)c1O (stereo partly drawn)	97.5	212
CC(C)(C)OC(=O)N[C@@H]1CCN(C(c2ccc(-n3cncn3)cc2)c2cc3c(cc2O)OCO3)C1 (stereo partly drawn)	99.7	56
CC(C)(C)OC(=O)N[C@@H]1CCN(C(c2ccncc2)c2cc3c(cc2O)OCCO3)C1 (stereo partly drawn)	2.78	
CC(C)(C)OC(=O)N[C@@H]1CCN(C(c2ccncc2)c2ccc(C(C)(C)C)cc2O)C1 (stereo partly drawn)	-8.59	

SMILES	inhibition [1] [%]	IC50 [2] [nM]
O=C(N[C@@H]1CCN(C(c2ccncc2)c2cc3c(cc2O)OCO3)C1)C1CCCCC1 (stereo partly drawn)	99.2	528
COC(=O)c1ccc(C(c2cc3c(cc2O)OCO3)N2CC[C@@H](NC(=O)OC(C)(C)C)C2)cc1 (stereo partly drawn)	99.4	445
N[C@@H]1CCN(C(c2ccncc2)c2cc3c(cc2O)OCO3)C1 (stereo partly drawn)	33.6	1750
CC(C)(C)OC(=O)N[C@@H]1CCN(C(c2ccncc2)c2ccccc2O)C1 (stereo partly drawn)	1.9	
Cc1nccn1-c1ccc(C(c2cc3c(cc2O)OCO3)N2CC[C@@H](NC(=O)OC(C)(C)C)C2)cc1 (stereo partly drawn)	99.8	87
CC(C)(C)OC(=O)N[C@@H]1CCN(C(c2ccncc2)c2cc3c(cc2O)OCO3)C1 (stereo partly drawn)	97.2	135
CC(C)(C)OC(=O)N[C@@H]1CCN(C(c2ccc(-c3ccccc3)cc2)c2cc3c(cc2O)OCO3)C1 (stereo partly drawn)	10.6	
COc1cccc(C(=O)N[C@@H]2CCN(C(c3ccncc3)c3cc4c(cc3O)OCO4)C2)c1 (stereo partly drawn)	99.4	546
CC(C)(C)OC(=O)N[C@@H]1CCN(C(c2cc3c(cc2O)OCO3)c2ccc(Cl)cc2F)C1 (stereo partly drawn)	99.3	111
COc1ccc(C(c2ccncc2)N2CC[C@@H](NC(=O)OC(C)(C)C)C2)c(O)c1 (stereo partly drawn)	44.3	
COc1ccc(O)c(C(c2ccncc2)N2CC[C@@H](NC(=O)OC(C)(C)C)C2)c1 (stereo partly drawn)	-3.27	
CC(C)(C)OC(=O)N[C@@H]1CCN(C(c2cc3c(cc2O)OCO3)c2ccc(F)cc2F)C1 (stereo partly drawn)	97.3	173
CC(C)(C)OC(=O)N[C@@H]1CCN(C(c2ccc(C#N)c(F)c2)c2cc3c(cc2O)OCO3)C1 (stereo partly drawn)	98.7	382
COC(=O)c1cccc(C(c2cc3c(cc2O)OCO3)N2CC[C@@H](NC(=O)OC(C)(C)C)C2)c1 (stereo partly drawn)	98.3	499
CC(C)(C)NC(=S)N[C@@H]1CCN(C(c2ccncc2)c2cc3c(cc2O)OCO3)C1 (stereo partly drawn)	96.4	171
CN(C(=O)OC(C)(C)C)[C@@H]1CCN(C(c2ccncc2)c2cc3c(cc2O)OCO3)C1 (stereo partly drawn)	87.6	642
CC(C)(C)OC(=O)N[C@@H]1CCN(C(c2cc3c(cc2O)OCO3)C2CCCCC2)C1 (stereo partly drawn)	-7.31	
CC(C)(C)OC(=O)N[C@@H]1CCN(C(c2ccc(C#N)cn2)c2cc3c(cc2O)OCO3)C1 (stereo partly drawn)	100	45
O=C(O[C@@H]1CCN(C(c2ccncc2)c2cc3c(cc2O)OCO3)C1)C1CC1 (stereo partly drawn)	98.2	586
COc1ccccc1C(=O)N[C@@H]1CCN(C(c2ccncc2)c2cc3c(cc2O)OCO3)C1 (stereo partly drawn)	99.1	399
CC(C)(C)C(=O)N[C@@H]1CCN(C(c2ccncc2)c2cc3c(cc2O)OCO3)C1 (stereo partly drawn)	98.7	664
CC(C)(C)OC(=O)N[C@@H]1CCN(C(c2cc3c(cc2O)OCO3)c2ccc(C#N)cc2F)C1 (stereo partly drawn)	99.4	330

SMILES	inhibition [1] [%]	IC50 [2] [nM]
O=C(N[C@@H]1CCN(C(c2ccncc2)c2cc3c(cc2O)OCO3)C1)c1cccc(F)c1 (stereo partly drawn)	99.7	351
CC(C)(C)OC(=O)N[C@@H]1CCN(C(c2ccncc2)c2cc3c(cc2O)OC(F)(F)O3)C1 (stereo partly drawn)	0.88	
Cn1nccc1C(c1cc2c(cc1O)OCO2)N1CC[C@@H](NC(=O)OC(C)(C)C)C1 (stereo partly drawn)	94.6	509
CC(C)(C)OC(=O)N[C@@H]1CCN(C(c2ccc(-c3ccncc3)cn2)c2cc3c(cc2O)OCO3)C1 (stereo partly drawn)	96.6	126
CC(C)(C)OC(=O)N[C@@H]1CCN(C(c2cc3c(cc2O)OCO3)c2ccc(F)cc2Cl)C1 (stereo partly drawn)	98.5	117
CC(C)(C)OC(=O)N[C@@H]1CCN(C(c2ccncc2)c2cc3c(cc2O)CCC3)C1 (stereo partly drawn)	-6.01	
O=C(N[C@@H]1CCN(C(c2ccncc2)c2cc3c(cc2O)OCO3)C1)C1CC1 (stereo partly drawn)	99.8	155
O=C(N[C@@H]1CCN(C(c2ccncc2)c2cc3c(cc2O)OCO3)C1)c1ccccc1Cl (stereo partly drawn)	94.2	187
CC(C)(C)OC(=O)N[C@@H]1CCN(C(c2cc3c(cc2O)OCO3)c2ccnc3ccccc23)C1 (stereo partly drawn)	99.5	100
O=C(N[C@H]1CCN(C(c2ccncc2)c2cc3c(cc2O)OCO3)C1)C1CC1 (stereo partly drawn)	96.6	892
CC(C)(C)OC(=O)N[C@@H]1CCN(C(c2cccc(-c3ccncc3)c2)c2cc3c(cc2O)OCO3)C1 (stereo partly drawn)	95.6	223
CC(C)(C)OC(=O)N[C@@H]1CCN(C(c2cccc(C#N)c2)c2cc3c(cc2O)OCO3)C1 (stereo partly drawn)	96.5	482
COc1cc(O)c(C(c2ccncc2)N2CC[C@@H](NC(=O)OC(C)(C)C)C2)cc1F (stereo partly drawn)	12.9	
CC(C)(C)OC(=O)N[C@@H]1CCN(C(c2ccc(-c3ccccn3)cc2)c2cc3c(cc2O)OCO3)C1 (stereo partly drawn)	99.8	145
CC(C)(C)OC(=O)N[C@@H]1CCN(C(c2ccc(F)cc2)c2cc3c(cc2O)OCO3)C1 (stereo partly drawn)	98.2	192
O=S(=O)(N[C@@H]1CCN(C(c2ccncc2)c2cc3c(cc2O)OCO3)C1)C1CC1 (stereo partly drawn)	99.3	577
O=C(NC[C@@H]1CCN(C(c2ccncc2)c2cc3c(cc2O)OCO3)C1)C1CC1 (stereo partly drawn)	93.6	193
O=C(N[C@@H]1CCN(C(c2ccncc2)c2cc3c(cc2O)OCO3)C1)c1ccccc1F (stereo partly drawn)	96.6	437
CC(C)(C)OC(=O)N[C@@H]1CCN(Cc2cc3c(cc2O)OCO3)C1	-4.8	
CC(=O)N[C@@H]1CCN(C(c2ccncc2)c2cc3c(cc2O)OCO3)C1 (stereo partly drawn)	77.5	519
COc1cc(O)c(C(c2ccncc2)N2CC[C@@H](NC(=O)OC(C)(C)C)C2)cc1OC (stereo partly drawn)	98.6	632
